Experimental data taken from patent US20140255330A1, “Mixed Sugar Compositions” (THE PROCTER & GAMBLE COMPANY, priority 2013, published 2014).
One block for each compound: values may come before it.

Key:
[1] = Visual melting point determination (capillary melting point apparatus); assay type: physicochemical; conditions: for Ending MP: transparent gel to liquid
Excerpt: A Kimax −51 capillary tube (size 1.5−1.8×90 mm) was charged with the mixed C12-NMG:C12-NMX samples described in Example 22 to afford ˜½ inch sample bed. A Tomas Hoover Capillary Melting Point Apparatus was used to determine melting points visually. The Starting Melting Point (MP) is defined as the temperature (° C.) when the initial white opaque solid has completed the transition to a transparent gel. The Ending Melting Point (MP) is defined as the temperature (° C.) when the transparent gel transitions to liquid.
The procedure of Example 27 was followed using the mixed C12-NMG:C12-NMGly samples described in Example 23.

[2] = Thermal transition determination via DSC, -40° C. program (procedure of Example 30); assay type: physicochemical; conditions: for T Intercept-2 / T Peak Max-2: peak 2
Protocol: (§1) A Tzero Hermetic pan & lid was charged with ˜10-15 mg mixed material sample described in Examples 22. A Direct Scanning Coulometer, DSC Q2000 V24.9 was used to determine thermal transitions. The following temperature profile was used to obtain the data: ambient temperature cooled to −40° C. at 20° C./min, −40° C. to 160° C. at 20° C./min. The T intercept is defined as the temperature where the extrapolated slope of the initial curve of a peak intercepts the interpolated baseline of that peak. T Peak Max is defined as the temperature at the peak (inflection point) of a given curve.
Temperature program: Ambient temperature to −40° C. at 20° C./min, −40° C. to 140° C. at 20° C./min.
(§2) The procedure of Example 30 was followed using the mixed C12-ene-NMG:C12-ene-NMX samples described in Example 24.
The procedure of Example 30 was followed using the mixed C15-ene-NMG:C15-ene-NMX samples described in Example 25. […]
The procedure of Example 30 was followed using the mixed NMHG:NMHX samples described in Example 46.

[3] = literature values; cited from earlier work
[4] = Thermal transition determination via DSC, -20° C. to 160° C. at 20° C./min; assay type: physicochemical; conditions: C12-NMG:C12-NMX; for T Intercept / T Peak Max: peak 1; for T Intercept-3 / T Peak Max-3: peak 3
Protocol: as §1, with “transitions. A DSC is able to detect phase transitions within a material that might not be visible to the naked eye.” for “transitions.”, “−20°” for “−40°”
Temperature program: Ambient temperature to −20° C. at 20° C./min, −20° C. to 160° C. at 20° C./min.

[5] = Physical consistency of samples noted at ambient temperature; assay type: physicochemical; conditions: when placed into DSC pan
Excerpt: as §2
The procedure of Example 30 was followed using the mixed C15-ene-NMG:C15-ene-NMX samples described in Example 25.
The procedure of Example 30 was followed using the mixed CCO-NMG:CCO-NMX samples described in Example 37.

[6] = Krafft Point analysis, Phase Technology NK60-KPA Analyzer (Diffusive Light Scattering); assay type: physicochemical; conditions: 1 wt % solutions of C12-NMG and C12-NMX in deionized water mixed by volume
Protocol: Krafft Point analysis was performed on a Phase Technology® NK60-KPA Analyzer that used a Diffusive Light Scattering (DLS) detection method. A 1 wt % solution was prepared in deionized water and 0.150 ml of this solution was added to the sample cell of the instrument at room temperature (20-25° C.). The following heating and cooling cycle was executed on the sample. Samples were warmed to 40° C. at a ramp rate of 5° C./min and held for 30 seconds. Next, Samples were cooled to −20° C. at a rate of −10° C./min and held for 60 seconds. Samples were then warmed to 0° C. at a rate of 5° C./min, held for 0 seconds, warmed to 30° C. at a rate of 2° C./min, held for 0 seconds and lastly warmed to 40° C. at a rate of 5° C./min.
Data was recorded as crystal count (y-axis) versus temperature (x-axis). […] During final warming cycle, when crystal count returned to original baseline, the temperature at that point was recorded as the Krafft point.
(§3) 1 wt % solutions of each of the materials in the table below were tested. […] A volume of 0.150 mL of this mixture was then analyzed via the Phase Technology® NK60-KPA Analyzer.
as §3

[7] = C12-NMG:C12-NMGly blends by weight
[8] = C12-NMG:C12-NMX blends by weight
[9] = C12-NMG:C12-NMX blends by weight, white opaque solid to transparent gel
[10] = C12-ene-NMG:C12-ene-NMX, peak 1, ** = No peak was observed
[11] = C15-ene-NMG:C15-ene-NMX, peak 1, ** = No peak was observed

Ending PM [1, 7]: 127.2 °C
Starting MP [1, 7]: 96.8 °C
Ending MP [1, 8]: 129.8 °C
Starting MP [1, 9]: 96 °C
T Intercept ([2]; C12-NMG:C12-NMGly, peak 1): 82.0 °C
T Peak Max ([2]; C12-NMG:C12-NMGly, peak 1): 94.7 °C
T Intercept-2 ([2]; C12-NMG:C12-NMGly): 137.0 °C
T Intercept [4]: 84.1 °C
T Peak Max [4]: 94.7 °C
T Intercept-3 [4]: 136.7 °C
T Peak Max-3 [4]: 137.9 °C
Compound: CCCCCCCCCCCC(=O)N(C)C[C@H](O)[C@@H](O)[C@H](O)[C@H](O)CO [Example C12-NMG, N-Dodecanoyl-N-Methylglucamine]
initial melting point (Zhu et al) [3]: 90.5-91.5 °C

Ending PM [1, 7]: 52.8 °C
Starting MP [1, 7]: 46.3 °C
T Intercept ([2]; C12-NMG:C12-NMGly, peak 1): 44.5 °C
T Peak Max ([2]; C12-NMG:C12-NMGly, peak 1): 49.6 °C
T Intercept-2 ([2]; C12-NMG:C12-NMGly): 117.2 °C
Compound: CCCCCCCCCCCC(=O)N(C)CC(O)CO (centres unmarked) [Example C12-NMGly, N-Dodecanoyl-(3-methylamino-1,2-propanediol)]
initial melting point (Zhu et al) [3]: 40-40.5 °C

Ending MP [1, 8]: 96.6 °C
Starting MP [1, 9]: 76 °C
T Intercept [4]: 69.7 °C
T Peak Max [4]: 77.0 °C
T Intercept-3 [4]: 95.6 °C
T Peak Max-3 [4]: 97.2 °C
Compound: CCCCCCCCCCCC(=O)N(C)CC(O)C(O)C(O)CO (centres unmarked) [Example C12-NMX, N-Dodecanoyl-N-Methylxylamine]
initial melting point (Zhu et al) [3]: 74-75 °C

physical consistency of sample [5]: powders
T Intercept [2, 10]: 67.0 °C
T Peak Max [2, 10]: 78.7 °C
T Intercept-2 ([2]; C12-ene-NMG:C12-ene-NMX): 106.1 °C
T Peak Max-2 ([2]; C12-ene-NMG:C12-ene-NMX): 108.5 °C
Compound: CCC=CCCCCCCCC(=O)N(C)C[C@H](O)[C@@H](O)[C@H](O)[C@H](O)CO [Example C12-ene-NMG, N-(9-Dodecenoyl)-N-Methylglucamine]

physical consistency of sample [5]: waxy in nature
T Intercept [2, 10]: 26.0 °C
T Peak Max [2, 10]: 28.6 °C
T Intercept-2 ([2]; C12-ene-NMG:C12-ene-NMX): 86.2 °C
T Peak Max-2 ([2]; C12-ene-NMG:C12-ene-NMX): 89.5 °C
Compound: CCC=CCCCCCCCC(=O)N(C)CC(O)C(O)C(O)CO (centres unmarked) [Example C12-ene-NMX, N-(9-Dodecenoyl)-N-Methylxylamine]

T Intercept [2, 11]: 64.1 °C
T Peak Max [2, 11]: 77.9 °C
T Intercept-2 ([2]; C15-ene-NMG:C15-ene-NMX): 144.6 °C
T Peak Max-2 ([2]; C15-ene-NMG:C15-ene-NMX): 146.2 °C
Compound: CCCCCC=CCCCCCCCC(=O)N(C)C[C@H](O)[C@@H](O)[C@H](O)[C@H](O)CO [Example C15-ene-NMG, N-(9-Pentadecenoyl)-N-Methylglucamine]

physical consistency of sample [5]: waxy in nature
T Intercept [2, 11]: 27.5 °C
T Peak Max [2, 11]: 38.8 °C
T Intercept-2 ([2]; C15-ene-NMG:C15-ene-NMX): 113.0 °C
T Peak Max-2 ([2]; C15-ene-NMG:C15-ene-NMX): 115.5 °C
Compound: CCCCCC=CCCCCCCCC(=O)N(C)CC(O)C(O)C(O)CO (centres unmarked) [Example C15-ene-NMX, N-(9-Pentadecenoyl)-N-Methyl-Xylamine]

T Intercept ([2]; NMHG:NMHX blends by weight): 48.6 °C
T Peak Max ([2]; NMHG:NMHX blends by weight): 52.3 °C
Compound: CCCCCCN(C)C[C@H](O)[C@@H](O)[C@H](O)CO [NMHX, N-Methyl Hexyl Xylamine]

Krafft Point [6]: 37 °C
Compound: CCCCCCCCCCCC(=O)N(C)C[C@H](O)[C@@H](O)[C@H](O)[C@H](O)CO [Solution 13, N-Dodecanoyl-N-Methylglucamine]

T Intercept ([2]; NMHG:NMHX blends by weight): 73.8 °C
T Peak Max ([2]; NMHG:NMHX blends by weight): 79.0 °C
Compound: N-Methyl Hexyl Glucamine [NMHG]

Compound: N-Methylglucamine [Example 1]
Krafft Point [6]: 20 °C
